# Measured values published in US7612054B2, “Dibenzo[b,f]oxepine-10-carboxamides and pharmaceutical uses thereof” (Novartis AG, priority 2003, dated 2009).
row,melting point [°C],SMILES
1,174 to 176,"CCCCNC(=O)C(C)CC(O)C(Cc1cc(F)cc(F)c1)NC(=O)C1=Cc2ccccc2Oc2ccccc21 (stereo not shown) [Example 16, Dibenzo[b,f]oxepine-10-carboxylic acid [4-butylcarbamoyl-1-(3,5-difluorobenzyl)-2-hydroxy-pentyl]-amide]"
2,153 to 155,"CCCCNC(=O)C(C)CC(O)C(Cc1ccccc1)NC(=O)C1=Cc2ccccc2Oc2cc(Cl)ccc21 (stereo not shown) [Example 9, 7-Chloro-dibenzo[b,f]oxepine-10-carboxylic acid (1-benzyl-4-butylcarbamoyl-2-hydroxy-pentyl)-amide]"
3,229 to 230,"CCCCNC(=O)C(C)CC(O)C(Cc1ccccc1)NC(=O)c1cc2ccccc2c(=O)c2ccccc12 (stereo not shown) [Example 11, 5-Oxo-5H-dibenzo[a,d]cycloheptene-10-carboxylic acid (1-benzyl-4-butylcarbamoyl-2-hydroxy-pentyl)-amide]"
4,204 to 207,"CCCCNC(=O)C(C)CC(O)C(Cc1cccc(F)c1)NC(=O)C1=Cc2ccccc2Oc2ccccc21 (stereo not shown) [Example 17, Dibenzo[b,f]oxepine-10-carboxylic acid [4-butylcarbamoyl-1-(3-fluorobenzyl)-2-hydroxy-pentyl]-amide]"
